Reference: patent US20150038435A1, “N-TERMINALLY MODIFIED OLIGOPEPTIDES AND USES THEREOF” (Novo Nordisk A/S, priority 2012, published 2015)
*: point of attachment. Lauroyl = CCCCCCCCCCCC(=O)*

Tests used:
Chymotrypsin = assay: Inhibition of enzymatic degradation of a model GLP-1 (FRET substrate) by chymotrypsin; type: biochemical; conditions: for EC50: read-out: EC50 Chymotrypsin (0.001 mg/ml), 0.001 mg/ml chymotrypsin, 37° C., ± standard error if at least 3 measurements
Method in brief: (§1)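 MCA/DNP-labelled model GLP-1 FRET substrate (10 μl of 100 μM stock) in Dulbecco's PBS at 37° C with varying acylated peptide; fluorescence (ex 320/em 405 nm) read every minute for ≥30 min. Initial slopes from linear regression, duplicates averaged; EC50 by sigmoidal logistic fit of slope vs concentration.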

Trypsin = assay: Inhibition of enzymatic degradation of a model GLP-1 (FRET substrate) by trypsin; type: biochemical; conditions: for EC50: read-out: EC50 Trypsin (0.001 mg/ml), 0.001 mg/ml trypsin, 37° C.
Method in brief: as §1

[1] = Hydrophobicity: retention time during reverse phase HPLC; type: physicochemical; conditions: Acquity CSH C18; pH 7.2 buffer/CH3CN gradient; 40° C.
Description: The retention time (RT) during reverse phase HPLC was taken as a measure of hydrophobicity of an N-terminally modified peptide or oligopeptide of the invention, where the connection is: The longer the RT, the more hydrophobic N-terminally modified peptide or oligopeptide. The following running conditions were applied during HPLC analysis:
Buffer B: 70% (v/v) aq. CH3CN

[2] = compound 0.1 mM, buffer containing 8% DMSO

Substance | Slope of the initial increase in fluorescence obtained during incubation with 0.001 mg/ml Chymotrypsin (Chymotrypsin; compound 1 mM) | Slope of the initial increase in fluorescence obtained during incubation with 0.001 mg/ml Trypsin (Trypsin; compound 1 mM) | RT (retention time during reverse phase HPLC as a measure of hydrophobicity) [1] | Slope of the initial increase in fluorescence obtained during incubation with 0.001 mg/ml Chymotrypsin (Chymotrypsin; [2]) | Slope of the initial increase in fluorescence obtained during incubation with 0.001 mg/ml Trypsin (Trypsin; [2]) | EC50 (Chymotrypsin) | EC50 (Trypsin)
N-dodecanoyl-Ala-Ala-Pro-DPhe-OH [Example 4] | 0.08 | 0.83 | 6.89 min | – | – | – | –
N-dodecanoyl-Ala-Lys-Pro-Tyr-OH (Lauroyl-AKPY-OH; SMILES CCCCCCCCCCCC(=O)N[C@@H](C)C(=O)N[C@@H](CCCCN)C(=O)N1CCC[C@H]1C(=O)N[C@@H](Cc1ccc(O)cc1)C(=O)O) [Example 82] | – | – | 5.07 min | 0.24 | 1.50 | – | –
Ala-Ala-Pro-Phe-OH [Example 14] | 3.53 | 4.46 | 3.08 min | – | – | – | –
N-dodecanoyl-Ala-Ala-Ala-Tyr-OH (Lauroyl-AAAY-OH; SMILES CCCCCCCCCCCC(=O)N[C@@H](C)C(=O)N[C@@H](C)C(=O)N[C@@H](C)C(=O)N[C@@H](Cc1ccc(O)cc1)C(=O)O) [Example 57] | – | – | 5.73 min | 1.65 | 1.59 | – | –
N-tetradecanoyl-Ala-Ala-Pro-Phe-OH [Example 3] | 0.01 | 0.37 | 9.74 min | – | – | 57 ± 2 µM | 74 µM
N-dodecanoyl-Aib-Aib-Pro-Phe-OH [Example 7] | 0.34 | 0.49 | 8.06 min | – | – | – | –
N-dodecanoyl-βAla-βAla-Pro-Phe-OH [Example 10] | 0.05 | 3.29 | 6.04 min | – | – | – | –
N-dodecanoyl-Thr-Ala-Ala-Pro-Tyr-OH [Example 52] | – | – | 5.47 min | 0.01 | 1.68 | – | –
N-dodecanoyl-Pro-Ala-Pro-Tyr-OH (Lauroyl-PAPY-OH; SMILES CCCCCCCCCCCC(=O)N1CCC[C@H]1C(=O)N[C@@H](C)C(=O)N1CCC[C@H]1C(=O)N[C@@H](Cc1ccc(O)cc1)C(=O)O) [Example 49] | – | – | 6.2 min | 0.57 | 1.96 | – | –
N-dodecanoyl-Pro-Pro-Tyr-OH [Example 106] | – | – | 6.01 min | 1.72 | 1.75 | – | –
N-dodecanoyl-Met-Ala-Ala-Pro-Tyr-OH (Lauroyl-MAAPY-OH; SMILES CCCCCCCCCCCC(=O)N[C@@H](CCSC)C(=O)N[C@@H](C)C(=O)N[C@@H](C)C(=O)N1CCC[C@H]1C(=O)N[C@@H](Cc1ccc(O)cc1)C(=O)O) [Example 46] | – | – | 7.06 min | 0.09 | 1.76 | – | –
N-dodecanoyl-Ala-Val-Pro-Tyr-OH (Lauroyl-AVPY-OH; SMILES CCCCCCCCCCCC(=O)N[C@@H](C)C(=O)N[C@H](C(=O)N1CCC[C@H]1C(=O)N[C@@H](Cc1ccc(O)cc1)C(=O)O)C(C)C) [Example 90] | – | – | 6.6 min | 0.35 | 1.25 | – | –
N-dodecanoyl-Met-Pro-Tyr-OH [Example 123] | – | – | 7.23 min | 0.82 | 2.11 | – | –
N-dodecanoyl-Gln-Ala-Pro-Tyr-OH (Lauroyl-QAPY-OH; SMILES CCCCCCCCCCCC(=O)N[C@@H](CCC(N)=O)C(=O)N[C@@H](C)C(=O)N1CCC[C@H]1C(=O)N[C@@H](Cc1ccc(O)cc1)C(=O)O) [Example 103] | – | – | 4.92 min | 1.13 | 1.78 | – | –
N-dodecanoyl-OEG-OEG-DPhe-OEG-OH [Example 131] | 0.53 | 0.62 | 6.21 min | – | – | – | –
N-dodecanoyl-Leu-Pro-Tyr-OH [Example 121] | – | – | 7.77 min | 0.34 | 1.35 | – | –
N-dodecanoyl-Asp-Ala-Pro-Tyr-OH (Lauroyl-DAPY-OH; SMILES CCCCCCCCCCCC(=O)N[C@@H](CC(=O)O)C(=O)N[C@@H](C)C(=O)N1CCC[C@H]1C(=O)N[C@@H](Cc1ccc(O)cc1)C(=O)O) [Example 96] | – | – | 3.86 min | 1.63 | 1.78 | – | –
N-dodecanoyl-Ala-Ala-Met-Tyr-OH (Lauroyl-AAMY-OH; SMILES CCCCCCCCCCCC(=O)N[C@@H](C)C(=O)N[C@@H](C)C(=O)N[C@@H](CCSC)C(=O)N[C@@H](Cc1ccc(O)cc1)C(=O)O) [Example 68] | – | – | 6.68 min | 0.60 | 1.73 | – | –
N-dodecanoyl-Lys-Pro-Tyr-OH [Example 122] | – | – | 5.17 min | 0.26 | 1.68 | – | –
N-dodecanoyl-Ala-Ala-Pro-Trp-OH (Lauroyl-AAPW-OH; SMILES CCCCCCCCCCCC(=O)N[C@@H](C)C(=O)N[C@@H](C)C(=O)N1CCC[C@H]1C(=O)N[C@@H](Cc1c[nH]c2ccccc12)C(=O)O) [Example 26] | – | – | 7.03 min | – | – | 29 ± 2 µM | 413 µM
N-dodecanoyl-Ala-Val-Tyr-OH [Example 112] | – | – | 6.6 min | 1.44 | 2.35 | – | –
N-dodecanoyl-Gly-Pro-Tyr-OH [Example 118] | – | – | 5.35 min | 1.94 | 1.84 | – | –
N-dodecanoyl-Ile-Ala-Pro-Tyr-OH (Lauroyl-IAPY-OH; SMILES CCCCCCCCCCCC(=O)N[C@H](C(=O)N[C@@H](C)C(=O)N1CCC[C@H]1C(=O)N[C@@H](Cc1ccc(O)cc1)C(=O)O)[C@@H](C)CC) [Example 41] | – | – | 7.76 min | 0.84 | 1.96 | – | –
N-dodecanoyl-Asp-Ala-Ala-Pro-Tyr-OH [Example 95] | – | – | 3.92 min | 0.10 | 1.82 | – | –
N-dodecanoyl-Asn-Ala-Ala-Pro-Tyr-OH [Example 93] | – | – | 4.84 min | 0.14 | 1.90 | – | –
N-dodecanoyl-Ala-Arg-Pro-Tyr-OH (Lauroyl-ARPY-OH; SMILES CCCCCCCCCCCC(=O)N[C@@H](C)C(=O)N[C@@H](CCCNC(=N)N)C(=O)N1CCC[C@H]1C(=O)N[C@@H](Cc1ccc(O)cc1)C(=O)O) [Example 73] | – | – | 5.34 min | 0.08 | 1.67 | – | –
N-dodecanoyl-Gly-Ala-Ala-Pro-Tyr-OH [Example 36] | – | – | 5.33 min | 0.16 | 1.47 | – | –
N-dodecanoyl-γGlu-OEG-Ala-Ala-Pro-Phe-OH [Example 125] | 0.75 | 0.38 | 3.95 min | – | – | – | –
